Legend:
[1] = system: HepG2 cells (human hepatoma cells); details: Watts et al. 2003; cited from earlier work
[2] = Breen et al. 1955; cited from earlier work
rats = details: in rats; Ueno et al. 1971; cited from earlier work
Aspergillus fumigatus = assay: Fungal growth in budmoth test vials with dietary rugulosin; assay type: cell-based; details: A. fumigatus-contaminated larvae; few vials with fungal growth at 100 and 150 μM
Protocol: Zeiraphera canadensis larvae (spruce budmoth) were collected from the wild near Sussex in mid June. They were immediately put in test vials and tested at rugulosin concentrations of 10, 50, 100 and 150 μM (75 per concentration). After seven days, surviving larvae were frozen and measured.
Many (60%) succumbed to fungal infections (Aspergillus fumigatus) and other unknown causes over the course of rearing. […] However, using the Wilcoxon matched-pairs signed-ranks test, the larvae fed 100 or 150 μM rugulosin in the diet were lighter than those fed the 10 μM rugulosin and control diets (p<0.10). Because of the high percentage of A. fumigatus-contaminated larvae in the experiment, an unanticipated result was the antifungal activity observed above 50 μM, few vials had fungal growth in the tests at 100 μM and 150 μM rugulosin.

[3] = system: mosquito larvae (Aedes albopictus) cell line; details: Watts et al. 2003; cited from earlier work
[4] = system: ovarian cells of the fall armyworm, Spodoptera frugiperda; details: Watts et al. 2003; cited from earlier work
[5] = system: C. fumiferana (spruce budworm) larvae; assay: Budworm growth on endophyte-infected nursery trees (mesh bags); assay type: in vivo, Choristoneura fumiferana; details: four year old trees, branches above and below 0.5 μg g^−1
Excerpt: disease-free second instar spruce budworm larvae as follows: A set number of budworm were placed by hand on lateral branches with buds and then covered with a mesh screen on both endophyte-positive and negative trees. Temperature recorders were placed in the holding area and the progress monitored until the budworm was not greater than sixth instar. At termination, the insects were collected, frozen for subsequent determinations of head capsule width and frozen weight. Samples were collected for toxin analysis to ensure that there was no misclassification of the trees as to their endophyte status.
Nursery experiments: The tests were conducted at the J.D. Irving, Limited Sussex Tree Nursery in New Brunswick, Canada (45° 43′ N, 65° 31′ W; elevation 21.30 m). In two successive years, several hundred seedlings grown as container stock in mulitpot 67 seedling containers were inoculated with the rugulosin-producing endophyte 5WS22E1 (DAOM 229536; CBS 120377). […]
Temperature recorders (Hobo Dataloggers, Onset Computer Corporation, Pocasset, Mass.) were placed in the holding area and the progress monitored until the budworms were not older than sixth instars. […] Head capsule widths were determined using a stereo microscope at 40× with ocular and stage micrometers. […]

Cc1cc(O)c2c(c1)C(=O)[C@]13C(=C2O)C(=O)[C@@H]2[C@H](O)[C@H]1[C@@H]1[C@@H](O)[C@H]3C(=O)C3=C(O)c4c(O)cc(C)cc4C(=O)[C@]312 [rugulosin]
cytotoxicity [1]: not cytotoxic
antifungal activity [2]: moderately antifungal
LD50 (rats): 44 mg kg^−1 BW
rugulosin concentration above which antifungal activity was observed (Aspergillus fumigatus): above 50 μM
toxicity to cultured cells [3]: toxic
toxicity to cultured cells [4]: toxic
Pearson correlation between rugulosin concentration and budworm weight [5]: −0.288
